From patent publication US20030166707A1, “Microsphaeropsin B as novel antibacterial agent, process for producing the same and pharmaceutical composition containing thereof” (priority 2001, published 2003)
Converted amounts (≈) assume the structure as drawn. Like-named read-outs stand apart in the source and are kept apart here.

Assays:
E. coli ATCC 25922 = experiment: MIC, standard microbroth dilution (NCCLS); assay type: cell-based; conditions: Escherichia coli, read-out: Antibacterial activity (MIC)
Protocol: (§1) The compounds of the present invention were tested for minimum inhibitory concentrations (MICs) against the bacteria listed in Table-1 according to the standard microbroth dilution method as described in a NCCLS document. The minimum inhibitory concentrations wer expressed in μg/ml. The test bacteria of 5×10^5 CFU/ml each were subjected to serial dilutions of the test material under aerobic conditions at 35° C. for 18 hours using Mueller Hinton broth. After incubation, the first concentration of wells to show a complete growth inhibition was considered as the MIC.

E. faecalis 2322 VRE = experiment: MIC, standard microbroth dilution (NCCLS); assay type: cell-based; conditions: Enterococcus faecalis, read-out: Antibacterial activity (MIC)
Protocol: as §1

E. faecalis 2353 VSE = experiment: MIC, standard microbroth dilution (NCCLS); assay type: cell-based; conditions: Enterococcus faecalis, read-out: Antibacterial activity (MIC)
Protocol: as §1

S. aureus ATCC 29213 = experiment: MIC, standard microbroth dilution (NCCLS); assay type: cell-based; conditions: Staphylococcus aureus, read-out: Antibacterial activity (MIC)
Protocol: as §1

S. aureus TN1152MRSA = experiment: MIC, standard microbroth dilution (NCCLS); assay type: cell-based; conditions: Staphylococcus aureus, read-out: Antibacterial activity (MIC)
Protocol: as §1

S. epdermidis ATCC1228 = experiment: MIC, standard microbroth dilution (NCCLS); assay type: cell-based; conditions: read-out: Antibacterial activity (MIC)
Protocol: as §1

[1] = Solubility characteristics of isolated Microsphaeropsin B; assay type: physicochemical
[2] = ATCC25922, E. coli ATCC 25922, 5×10^5 CFU/ml, Mueller Hinton broth, aerobic, 35° C., 18 hours
[3] = E. faecalis 2322 VRE, 5×10^5 CFU/ml, Mueller Hinton broth, aerobic, 35° C., 18 hours
[4] = E. faecalis 2353 VSE, 5×10^5 CFU/ml, Mueller Hinton broth, aerobic, 35° C., 18 hours
[5] = ATCC29213, S. aureus ATCC 29213, 5×10^5 CFU/ml, Mueller Hinton broth, aerobic, 35° C., 18 hours
[6] = S. aureus TN1152MRSA, 5×10^5 CFU/ml, Mueller Hinton broth, aerobic, 35° C., 18 hours
[7] = S. epdermidis ATCC1228, 5×10^5 CFU/ml, Mueller Hinton broth, aerobic, 35° C., 18 hours

| MIC (E. coli ATCC 25922; [2]) | MIC (E. faecalis 2322 VRE; [3]) | MIC (E. faecalis 2353 VSE; [4]) | MIC (S. aureus ATCC 29213; [5]) | MIC (S. aureus TN1152MRSA; [6]) | MIC (S. epdermidis ATCC1228; [7]) | Behaviour on addition of water ([1]; dissolution in ethanol or dimethyl sulphoxide followed by addition of water) | Solubility ([1]; in 1M sodium hydroxide solution) | Solubility ([1]; in 5% sodium bicarbonate) | Solubility ([1]; in water) | SMILES | MIC (E. coli ATCC 25922; ATCC25922, 18 h) | MIC (E. faecalis 2322 VRE; VRE, 18 h) | MIC (E. faecalis 2353 VSE; 2353VSE, 18 h) | MIC (S. aureus ATCC 29213; ATCC29213, 18 h) | MIC (S. aureus TN1152MRSA; TN1152MRSA, 18 h) | MIC (S. epdermidis ATCC1228; 18 h) |
| --- | --- | --- | --- | --- | --- | --- | --- | --- | --- | --- | --- | --- | --- | --- | --- | --- |
| 2 µg/mL (≈ 5.72 µM) | 32 µg/mL (≈ 91.6 µM) | 0.25 µg/mL (≈ 0.715 µM) | 0.062 µg/mL (≈ 0.177 µM) | 8 µg/mL (≈ 22.9 µM) | 16 µg/mL (≈ 45.8 µM) |  |  |  |  | CC1(C)S[C@@H]2[C@H](NC(=O)[C@H](N)c3ccccc3)C(=O)N2[C@H]1C(=O)O [Ampicillin] |  |  |  |  |  |  |
| > 32 µg/mL | 2 µg/mL (≈ 5.01 µM) | 1 µg/mL (≈ 2.5 µM) | 0.5 µg/mL (≈ 1.25 µM) | 0.5 µg/mL (≈ 1.25 µM) | 1 µg/mL (≈ 2.5 µM) | immediate precipitate formation | insoluble | insoluble | insoluble | C/C=C/C=C/C1C=CC2CC(C)CCC2C1(C)C(=O)C1=C(O)C(C(C)O)NC1=O (stereo not shown) [Microsphaeropsin B] |  |  |  |  |  |  |
|  |  |  |  |  |  |  |  |  |  | CN[C@H](CC(C)C)C(=O)N[C@H]1C(=O)N[C@@H](CC(N)=O)C(=O)N[C@H]2C(=O)N[C@H]3C(=O)N[C@H](C(=O)N[C@H](C(=O)O)c4cc(O)cc(O)c4-c4cc3ccc4O)[C@H](O)c3ccc(c(Cl)c3)Oc3cc2cc(c3O[C@@H]2O[C@H](CO)[C@@H](O)[C@H](O)[C@H]2O[C@H]2C[C@](C)(N)[C@H](O)[C@H](C)O2)Oc2ccc(cc2Cl)[C@H]1O [Vancomycin] | > 32 µg/mL | 16 µg/mL (≈ 11 µM) | 0.25 µg/mL (≈ 0.173 µM) | 0.5 µg/mL (≈ 0.345 µM) | 0.25 µg/mL (≈ 0.173 µM) | 0.5 µg/mL (≈ 0.345 µM) |
